Columns and labels:
[1] = target: T1, Adrenergic receptor alpha-1 (Rattus norvegicus, UniProt P15823+P23944+P43140); experiment: Alpha-1 adrenergic receptor binding affinity was evaluated by its ability to displace [3H]prazosin in rat brain synaptosomes; format: subcellular
T1 sequence (P15823 whole entry): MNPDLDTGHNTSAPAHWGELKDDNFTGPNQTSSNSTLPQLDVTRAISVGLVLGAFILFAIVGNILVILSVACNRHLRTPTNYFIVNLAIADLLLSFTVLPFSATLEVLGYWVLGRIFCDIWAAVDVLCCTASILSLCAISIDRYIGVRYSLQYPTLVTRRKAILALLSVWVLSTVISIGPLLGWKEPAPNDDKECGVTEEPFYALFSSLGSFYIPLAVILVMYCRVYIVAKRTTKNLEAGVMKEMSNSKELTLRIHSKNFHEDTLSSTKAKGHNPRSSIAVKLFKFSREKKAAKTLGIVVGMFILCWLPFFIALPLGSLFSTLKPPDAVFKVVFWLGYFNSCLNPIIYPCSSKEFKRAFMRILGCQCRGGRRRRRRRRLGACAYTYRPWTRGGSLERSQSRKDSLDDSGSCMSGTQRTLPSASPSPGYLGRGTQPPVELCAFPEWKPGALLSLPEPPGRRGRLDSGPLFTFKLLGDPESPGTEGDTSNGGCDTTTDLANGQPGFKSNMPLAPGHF
T1 sequence (P23944 whole entry): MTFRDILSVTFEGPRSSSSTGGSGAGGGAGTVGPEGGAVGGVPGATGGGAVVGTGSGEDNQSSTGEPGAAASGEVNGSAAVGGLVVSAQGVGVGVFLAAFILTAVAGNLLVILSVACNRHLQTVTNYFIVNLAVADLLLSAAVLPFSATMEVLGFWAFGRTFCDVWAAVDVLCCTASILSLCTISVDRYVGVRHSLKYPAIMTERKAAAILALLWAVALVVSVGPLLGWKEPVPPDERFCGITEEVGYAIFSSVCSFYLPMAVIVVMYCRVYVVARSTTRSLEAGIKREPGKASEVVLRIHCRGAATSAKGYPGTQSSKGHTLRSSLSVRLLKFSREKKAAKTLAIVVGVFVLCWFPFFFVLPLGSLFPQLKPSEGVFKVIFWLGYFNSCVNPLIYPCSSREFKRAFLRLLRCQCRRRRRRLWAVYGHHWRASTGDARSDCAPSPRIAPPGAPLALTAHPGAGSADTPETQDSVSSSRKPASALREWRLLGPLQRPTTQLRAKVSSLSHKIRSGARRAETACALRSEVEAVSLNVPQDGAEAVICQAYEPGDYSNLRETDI
T1 sequence (P43140 whole entry): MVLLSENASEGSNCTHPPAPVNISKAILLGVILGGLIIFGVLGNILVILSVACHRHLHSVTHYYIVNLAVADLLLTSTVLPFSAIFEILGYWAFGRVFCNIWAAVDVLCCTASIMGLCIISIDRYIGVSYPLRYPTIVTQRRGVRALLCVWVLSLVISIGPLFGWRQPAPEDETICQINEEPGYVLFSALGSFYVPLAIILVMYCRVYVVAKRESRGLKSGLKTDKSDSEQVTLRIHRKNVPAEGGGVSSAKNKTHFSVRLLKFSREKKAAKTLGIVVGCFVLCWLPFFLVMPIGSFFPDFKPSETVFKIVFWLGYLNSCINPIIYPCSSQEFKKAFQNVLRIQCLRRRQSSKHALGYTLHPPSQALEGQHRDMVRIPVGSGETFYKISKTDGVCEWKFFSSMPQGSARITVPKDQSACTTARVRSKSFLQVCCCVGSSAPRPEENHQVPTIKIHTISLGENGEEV

[2] = [Ca2+] channel binding affinity was evaluated by its ability to displace [3H]-PN-200-110 in rat brain synaptosomes; format: subcellular
Rattus norvegicus = organism: Rattus norvegicus; experiment: Inhibition constant by its ability to inhibit (act through Ca++ ion channel) contractions induced by K+ depolarization in rat dorsal aorta; format: functional
Oryctolagus cuniculus = organism: Oryctolagus cuniculus; experiment: Inhibition constant by its ability to inhibit contractions induced by phenylephrine in rabbit dorsal aorta; format: functional

Row | Compound | Ki [1] | Ki [2] | Kb (Rattus norvegicus) | Kb (Oryctolagus cuniculus)
1 | CO/C(O)=C1\C(C)=NC(C)=C(C(=O)NCCCN2CCN(c3ccccc3OC)CC2)C1c1cccc([N+](=O)[O-])c1 (centres undefined) | 13 nM | 35 nM | 6.3 nM | –
2 | COC(=O)C1=C(C)NC(C)=C(C(=O)NCCCN2CCN(c3ccccc3OC)CC2)[C@@H]1c1cccc([N+](=O)[O-])c1 | 36 nM | 338 nM | 107 nM | 50 nM
3 | COC(=O)C1=C(C)NC(C)=C(C(=O)OC)C1c1ccccc1[N+](=O)[O-] [NIFEDIPINE] | > 1000 nM | 0.53 nM | 0.5 nM | > 1000 nM

Now from value to compound, other results behind:

Row | Ki [1] | Ki [2] | Compound | Kb (Rattus norvegicus) | Kb (Oryctolagus cuniculus)
4 | > 1000 nM | 7.8 nM | CO/C(O)=C1\C(C)=NC(C)=C(C(=O)n2ccnc2)[C@H]1c1cccc([N+](=O)[O-])c1 | 3.6 nM | –
5 | > 1000 nM | 181 nM | CO/C(O)=C1\C(C)=NC(C)=C(C(=O)n2ccnc2)[C@@H]1c1cccc([N+](=O)[O-])c1 | 31 nM | –
6 | 4.6 nM | 16 nM | COC(=O)C1=C(C)NC(C)=C(C(=O)NCCCN2CCN(c3ccccc3OC)CC2)[C@H]1c1cccc([N+](=O)[O-])c1 | 2.9 nM | 8.3 nM
7 | – | > 1000 nM | COc1cc2nc(N3CCN(C(=O)c4ccco4)CC3)nc(N)c2cc1OC [PRAZOSIN] | > 1000 nM | 1.6 nM
